Results: ChEMBL document CHEMBL1201862, “PubChem BioAssay data set” (2004)
Active and inactive are the calls of the source.

Experiments:
[1] = system: Streptococcus sp. 'group A'; assay: growth inhibition of control SK(-) GAS strain, dose response, counter-screen for streptokinase expression inhibitor project, luminescence, kanamycin, BacTiterGlo, confirmation (AID 1900); type: functional, organism-based
[2] = target: T1, Streptokinase A (Streptococcus pyogenes serotype M1, UniProt P10520); assay: S. pyogenes streptokinase expression inhibitors, potency, dose response, plasminogen activation absorbance, OD405 (AID 1914); type: functional, Streptococcus pyogenes M1 GAS;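 also: secreted streptokinase activity via plasminogen activation per viability signal from cell pellet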
T1 sequence (P10520 whole entry): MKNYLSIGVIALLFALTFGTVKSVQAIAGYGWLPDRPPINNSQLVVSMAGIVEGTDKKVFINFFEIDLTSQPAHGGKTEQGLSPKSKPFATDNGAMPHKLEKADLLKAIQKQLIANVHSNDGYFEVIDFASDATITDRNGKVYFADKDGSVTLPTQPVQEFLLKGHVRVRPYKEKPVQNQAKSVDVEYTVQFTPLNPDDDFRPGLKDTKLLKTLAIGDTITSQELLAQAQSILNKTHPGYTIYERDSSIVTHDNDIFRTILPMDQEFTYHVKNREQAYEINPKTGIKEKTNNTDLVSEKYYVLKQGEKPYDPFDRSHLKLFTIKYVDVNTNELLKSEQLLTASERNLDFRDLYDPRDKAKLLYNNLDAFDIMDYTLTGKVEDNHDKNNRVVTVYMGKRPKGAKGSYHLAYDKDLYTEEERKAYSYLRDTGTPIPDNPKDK

[3] = system: Streptococcus; assay: Group A Streptococcus viability loss, dose response, counter-screen for streptokinase expression inhibitor project, luminescence, BacTiterGlo (AID 1915); type: functional, organism-based;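 also: potency for reduction of bacterial viability or growth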
[4] = target: T2, Cytochrome P450 1A2 (Homo sapiens, UniProt P05177);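 also: PubChem cytochrome P450 panel assay, CYP1A2 panel member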
T2 sequence (P05177 whole entry): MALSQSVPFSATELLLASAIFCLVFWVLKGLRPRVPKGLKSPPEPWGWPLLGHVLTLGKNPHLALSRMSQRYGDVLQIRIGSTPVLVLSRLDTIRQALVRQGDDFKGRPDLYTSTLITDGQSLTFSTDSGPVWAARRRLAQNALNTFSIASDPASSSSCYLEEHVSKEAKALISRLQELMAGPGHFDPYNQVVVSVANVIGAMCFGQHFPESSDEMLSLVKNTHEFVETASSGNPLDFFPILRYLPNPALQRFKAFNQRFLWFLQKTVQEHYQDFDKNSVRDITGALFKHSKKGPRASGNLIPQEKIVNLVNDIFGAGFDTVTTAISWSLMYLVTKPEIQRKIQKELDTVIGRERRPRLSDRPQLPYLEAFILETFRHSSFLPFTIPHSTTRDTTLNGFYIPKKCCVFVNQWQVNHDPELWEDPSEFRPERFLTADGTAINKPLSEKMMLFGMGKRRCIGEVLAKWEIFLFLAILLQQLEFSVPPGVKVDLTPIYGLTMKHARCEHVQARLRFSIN

[5] = target: Cytochrome P450 2C9 (Homo sapiens, UniProt P11712)
Cytochrome P450 2C9, sequence (P11712 whole entry): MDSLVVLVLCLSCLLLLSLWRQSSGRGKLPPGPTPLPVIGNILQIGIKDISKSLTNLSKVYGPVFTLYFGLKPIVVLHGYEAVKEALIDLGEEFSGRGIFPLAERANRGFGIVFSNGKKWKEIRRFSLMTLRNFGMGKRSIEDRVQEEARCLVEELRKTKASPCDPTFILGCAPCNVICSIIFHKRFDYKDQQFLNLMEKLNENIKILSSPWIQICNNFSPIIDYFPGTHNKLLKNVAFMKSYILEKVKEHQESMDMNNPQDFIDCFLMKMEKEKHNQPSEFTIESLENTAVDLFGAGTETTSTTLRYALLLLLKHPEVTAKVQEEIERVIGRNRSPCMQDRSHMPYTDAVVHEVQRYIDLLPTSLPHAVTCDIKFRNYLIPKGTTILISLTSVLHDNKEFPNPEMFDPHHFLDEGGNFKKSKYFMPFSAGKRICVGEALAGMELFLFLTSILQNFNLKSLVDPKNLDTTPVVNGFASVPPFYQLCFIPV

[6] = HEp-2 cell cytotoxicity, dose response, cytotoxicity control for RSV inhibitor project, HTS (AID 2410); type: functional; settings: human respiratory syncytial virus
[7] = target: Cytochrome P450 3A4 (Homo sapiens, UniProt P08684);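 also: CYP3A4 tested as one member of a cytochrome P450 panel screen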
Cytochrome P450 3A4, sequence (P08684 whole entry): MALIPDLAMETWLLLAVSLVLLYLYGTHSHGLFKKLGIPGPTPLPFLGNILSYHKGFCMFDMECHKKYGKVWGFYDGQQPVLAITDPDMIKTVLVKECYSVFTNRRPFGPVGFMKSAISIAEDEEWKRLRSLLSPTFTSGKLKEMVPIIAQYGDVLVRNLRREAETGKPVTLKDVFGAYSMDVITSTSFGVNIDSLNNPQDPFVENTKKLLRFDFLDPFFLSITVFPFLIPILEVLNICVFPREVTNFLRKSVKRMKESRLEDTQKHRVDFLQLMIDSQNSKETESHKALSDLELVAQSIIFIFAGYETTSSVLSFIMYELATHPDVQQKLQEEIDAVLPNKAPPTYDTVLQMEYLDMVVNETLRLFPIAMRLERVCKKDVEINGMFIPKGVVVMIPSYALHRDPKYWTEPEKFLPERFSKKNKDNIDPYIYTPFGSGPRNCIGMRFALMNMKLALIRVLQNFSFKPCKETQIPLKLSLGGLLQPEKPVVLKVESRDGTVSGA

[8] = target: Cytochrome P450 2C19 (Homo sapiens, UniProt P33261); assay: Cytochrome panel assay with activity outcomes. Panel member name: p450-cyp2c19 Compounds with AC50 equal or less than 10 uM are considered active; type: functional; settings: read-out: AC50
Cytochrome P450 2C19, sequence (P33261 whole entry): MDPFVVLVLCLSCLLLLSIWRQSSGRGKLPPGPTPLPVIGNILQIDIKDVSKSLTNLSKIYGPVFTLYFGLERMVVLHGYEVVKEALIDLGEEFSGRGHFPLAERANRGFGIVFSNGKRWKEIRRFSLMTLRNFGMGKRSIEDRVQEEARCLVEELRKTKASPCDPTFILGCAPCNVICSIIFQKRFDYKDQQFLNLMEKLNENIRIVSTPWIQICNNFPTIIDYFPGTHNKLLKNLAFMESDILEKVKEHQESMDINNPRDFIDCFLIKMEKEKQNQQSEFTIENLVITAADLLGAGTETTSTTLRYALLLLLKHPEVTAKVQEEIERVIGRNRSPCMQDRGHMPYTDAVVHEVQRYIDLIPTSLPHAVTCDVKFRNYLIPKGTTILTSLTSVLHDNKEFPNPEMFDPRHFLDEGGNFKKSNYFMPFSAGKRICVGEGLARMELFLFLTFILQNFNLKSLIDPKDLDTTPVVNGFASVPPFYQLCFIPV

[9] = Luminescence Cell-Based Dose Retest to Confirm Inhibitors of Cancer Stem Cells. [Related pubchem assays (depositor defined):AID2717, AID2721]; type: functional; settings: Homo sapiens
[10] = target: T3, Corticotropin-releasing factor receptor 2/Corticotropin-releasing factor-binding protein (Homo sapiens, UniProt P24387+Q13324); assay: activators of CRF receptor 2 with binding protein – uHTS hits, confirmation (AID 602473); type: functional; settings: read-out: EC50_Mean
T3 sequence (Q13324 whole entry): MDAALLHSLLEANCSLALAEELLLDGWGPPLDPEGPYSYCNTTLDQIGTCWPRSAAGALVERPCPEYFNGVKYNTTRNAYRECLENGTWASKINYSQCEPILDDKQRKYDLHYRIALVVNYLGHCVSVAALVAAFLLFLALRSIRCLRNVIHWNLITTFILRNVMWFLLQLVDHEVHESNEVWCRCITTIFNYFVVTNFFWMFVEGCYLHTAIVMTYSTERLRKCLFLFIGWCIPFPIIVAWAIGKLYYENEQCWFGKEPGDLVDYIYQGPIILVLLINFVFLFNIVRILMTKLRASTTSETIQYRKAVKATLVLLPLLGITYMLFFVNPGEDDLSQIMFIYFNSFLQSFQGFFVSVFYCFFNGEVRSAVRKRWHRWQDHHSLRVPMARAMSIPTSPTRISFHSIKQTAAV
T3 sequence (P24387 whole entry): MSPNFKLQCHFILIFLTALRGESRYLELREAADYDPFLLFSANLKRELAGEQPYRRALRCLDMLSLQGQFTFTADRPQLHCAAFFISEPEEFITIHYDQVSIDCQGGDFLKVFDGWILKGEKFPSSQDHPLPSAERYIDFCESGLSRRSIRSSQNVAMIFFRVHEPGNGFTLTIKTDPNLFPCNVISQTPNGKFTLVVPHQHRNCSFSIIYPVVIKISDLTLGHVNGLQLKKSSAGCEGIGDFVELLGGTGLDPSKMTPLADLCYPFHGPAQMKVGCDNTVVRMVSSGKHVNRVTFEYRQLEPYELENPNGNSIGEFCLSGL

[11] = inhibitors of intracellular T. cruzi replication, confirmation, NIH3T3 host cells, beta-gal luminescence (AID 2044); type: functional, cell-based;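 also: intracellular parasites grown in NIH/3T3 mouse fibroblasts as host cells; luminescent beta-galactosidase reporter signal from transgenic T. cruzi replicating inside host cells; inhibitors lower the luminescence signal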
[12] = cytotoxicity toward NIH3T3 fibroblasts, dose response, counter-screen, cell-based, ATP luminescence, mouse fibroblasts (AID 2010); type: functional;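 also: cells exposed to compound for about 90 hours before reading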
[13] = target: Paired box protein Pax-8 (Homo sapiens, UniProt Q06710); assay: inhibitors of PAX8-driven TPO luciferase reporter, dose response, RMG-I cells, cherry-pick (AID 687027); type: functional, cell-based;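 also: luciferase reporter driven by Pax8 target thyroperoxidase promoter measured by SteadyGlo luminescence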
Paired box protein Pax-8, sequence (Q06710 whole entry): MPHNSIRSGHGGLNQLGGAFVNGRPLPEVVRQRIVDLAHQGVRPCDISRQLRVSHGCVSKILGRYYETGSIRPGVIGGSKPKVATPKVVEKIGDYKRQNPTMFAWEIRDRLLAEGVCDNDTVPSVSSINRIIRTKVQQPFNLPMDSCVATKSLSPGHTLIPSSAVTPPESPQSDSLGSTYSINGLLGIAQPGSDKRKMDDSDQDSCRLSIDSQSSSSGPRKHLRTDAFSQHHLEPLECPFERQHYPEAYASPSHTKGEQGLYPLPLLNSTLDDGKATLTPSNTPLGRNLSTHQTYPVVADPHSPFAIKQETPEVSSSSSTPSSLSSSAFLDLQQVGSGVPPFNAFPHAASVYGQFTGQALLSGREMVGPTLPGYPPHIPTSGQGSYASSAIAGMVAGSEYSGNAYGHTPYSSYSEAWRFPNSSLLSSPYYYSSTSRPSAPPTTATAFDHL

Which EC50 [1] does the source give for CCCCCCCCCc1nc2sc3c(c2c(=O)n1NC(=O)c1ccc([N+](=O)[O-])cc1)CC(C)(C)OC3 here?
Its EC50 is 3.71 µM (active).

And the EC50 [2]?
Its EC50 is 2.17 µM (active).

And the EC50 [3]?
The EC50 was 39.8 µM (active).

Which AC50 [4] does the source give for C/C(N)=C(/C#N)C(=O)CSc1nnc(COc2cc(C)ccc2C)o1 here?
The AC50 was 4.47 µM (inconclusive).

What about the AC50 [5] of the same compound?
Its AC50 is 7.08 µM (inconclusive).

Which CC50 [6] does the source give for Cc1ccc(NC(S)=NCc2ccc3[nH]c4c(c3c2)CCCC4)cc1 here?
Its CC50 is 9.29 µM (active).

With O=C(O)/C=C\c1ccc(Cn2ccnc2)cc1 as the compound, how does the AC50 [4] read?
The AC50 was 12.6 µM (inconclusive).

For CCOC(=O)c1ccc(NC(=O)c2sc3nc4n(c(=O)c3c2C)CCC4)cc1, which EC50 [1] is on record?
The EC50 was 1.48 µM (active).

And the EC50 [2]?
The EC50 was > 150 µM (not active).

What about the EC50 [3] of the same compound?
The EC50 was 20.2 µM (active).

For Cc1cccc(OC2(c3ccccc3)OC(=O)c3ccccc32)c1C (configuration not stated), which AC50 [4] is on record?
Its AC50 is 14.1 µM (inconclusive).

What about the AC50 [7] of the same compound?
Its AC50 is 28.2 µM (inconclusive).

Which results are given for COc1ccc(-n2c(=O)c(C)nc3cnc(Nc4ccccc4)nc32)cc1?
AC50 [4]: 5.01 µM (inconclusive); AC50 [5]: 20 µM (inconclusive)

With O=C1NN=C(c2ccc(Cl)cc2)CC1c1cccc(Cl)c1 (configuration not stated) as the compound, how does the CC50 [6] read?
The CC50 was 30.2 µM (active).

For CN(Cc1ccco1)c1ccnc(-c2ccoc2)n1, which AC50 [8] is on record?
Its AC50 is 25.1 µM (inconclusive).

Which AC50 [9] does the source give for CC1CCCCN1c1cc(C#N)c(C#N)cc1[N+](=O)[O-] (configuration not stated) here?
Its AC50 is 0.174 µM (active).

What about the AC50 [4] of the same compound?
Its AC50 is 3.16 µM (inconclusive).

And the AC50 [7]?
Its AC50 is 15.8 µM (inconclusive).

And the AC50 [5]?
Its AC50 is 5.01 µM (inconclusive).

Which AC50 [8] does the source give for CCC(C)Nc1nc(OCC(F)(F)F)nc(OCC(F)(F)F)n1 (configuration not stated) here?
Its AC50 is 3.16 µM (inconclusive).

Which EC50 [10] does the source give for CCCCCCNC(=O)C(C#N)c1nc2ccccc2nc1N1CCCC1 (configuration not stated) here?
The EC50 was 5.12 µM (active).

With CCCCn1cnc2c(cnn2-c2ccc(F)cc2)c1=O as the compound, how does the AC50 [8] read?
The AC50 was 2.51 µM (inconclusive).

Which results are given for N=c1c(-c2nc3ccccc3[nH]2)cc(C(=O)c2cccs2)nn1-c1ccccc1?
CC50 [6]: 15.3 µM (active); EC50 [1]: 1.51 µM (active); EC50 [11]: 0.39 µM (active); EC50 [12]: > 60 µM (not active); EC50 [3]: 5.63 µM (active)

For COCCn1c(=O)c(-c2ccc(F)cc2)nc2cnc(Nc3cccc(OC)c3)nc21, which AC50 [4] is on record?
The AC50 was 3.16 µM (inconclusive).

With C[C@@H]1CN([C@H](C)CO)C(=O)c2cc(NC(=O)Nc3ccc(C(F)(F)F)cc3)ccc2O[C@@H](C)CCCCO[C@H]1CN(C)S(=O)(=O)c1ccc(F)cc1 as the compound, how does the AC50 [13] read?
The AC50 was 6.53 µM (active).

With C[C@@H]1CCCCO[C@H](CN(C)C(=O)C2CCCCC2)[C@@H](C)CN([C@@H](C)CO)C(=O)c2cc(NC(=O)Nc3ccccc3)ccc2O1 as the compound, how does the AC50 [13] read?
The AC50 was 5.39 µM (active).

Which CC50 [6] does the source give for N#CC1(c2ccc(NC(=O)c3ccccc3F)cc2)CCCC1 here?
The CC50 was > 50 µM (active).

Which CC50 [6] does the source give for O=C(Nc1ccc(N2CCCCC2)c(Cl)c1)c1nc[nH]n1 here?
The CC50 was 16.6 µM (active).

For C[C@@H](CN1CCC(Cc2ccccc2)CC1)[C@H](O)c1ccc(O)cc1, which AC50 [4] is on record?
Its AC50 is 12.6 µM (inconclusive).

Which CC50 [6] does the source give for COc1ccccc1N1CCN(C(=O)c2sc3ncnc(N4CCN(c5ccccn5)CC4)c3c2C)CC1 here?
The CC50 was 12.2 µM (active).

For COc1ccc(-c2nn(-c3ccccc3)cc2/C=N/NS(=O)(=O)c2ccccc2)cc1, which CC50 [6] is on record?
Its CC50 is 17.8 µM (active).

For COC(=O)c1c(-c2ccc(C)cc2)csc1NC(=O)c1c(-c2ccccc2)noc1C, which CC50 [6] is on record?
Its CC50 is 26.5 µM (active).
